Measured values as given in US20070054887A1, “Methods for treating bladder dysfunction” (BioXell S.p.A, priority 2003, published 2007).

Key:
[1] = test system: rats with CYP-induced cystitis; assay: cyclophosphamide (CYP) induced chronic cystitis in rats: conscious cystometry; assay type: in vivo, Wistar rats; conditions: 30 and 75 ug/kg, control v Comp A
[2] = test system: hBC; assay: DNA fragmentation / apoptotic index in hBC by in situ end labelling (ISEL); conditions: Compound A 10 nM, alone and in the presence of KGF (10 ng/ml) or testosterone (10 nM); FIG. 7
[3] = test system: vimentin; assay: vimentin gene and protein expression in serum-starved hBC; assay type: cell-based, human; conditions: 10 nM, at any time point tested; FIG. 13
Method: Vimentin was detected (mRNA and protein) as per the method for desmin described in Example 1B. Vimentin is a fibroblastic cell marker. Quantitative analysis using real-time RT-PCR of vimentin mRNA expression in serum-starved hBC treated with Compound A (10 nM) was examined at different time points (2-12 days). Results are derived from five different experiments from three distinct hBC preparations and are expressed as fold increase compared to time zero. Control, open columns; Compound A, grey columns.
Western blot detection of vimentin in hBC was performed as follows: Thirty ug of proteins were separated by 10% SDS-PAGE, transferred onto nitrocellulose membrane, and probed with anti-vimentin antibody (1:1000). A band of about 61 kDa was detected in each sample of hBC. […] Results are representative of three independent experiments performed using separate hBC preparations.
Immunocytochemical detection of vimentin in hBC was conducted as follows: Cells were seeded onto sterile glasses, treated with Compound A (10 nM) and processed at the indicated time points with an anti-vimentin antibody (1:1000). […] Quantification of three separate experiments from three distinct preparations of hBC is shown in FIG. 15 (control, open columns; Compound A, grey columns). […]

[4] = test system: desmin; assay: desmin gene and protein expression in serum-starved hBC; assay type: cell-based, human; conditions: 10 nM
Method: To detect desmin both at gene or protein level hBC cells were seeded in their growth medium onto 10 mm diameter culture dishes or onto sterile glass slides (about 10^4 cells/ml), for mRNA or immunocytochemical analysis, respectively. hBC cells at about 30% confluency, after overnight starvation in serum-free medium were incubated in phenol red- and serum-free medium containing 0.1% BSA with or without Compound A (10^−8 M) for 2, 4, 8 and 12 days, and the medium was changed every 2 days. Cells were harvested for mRNA or protein analysis by Taqman or Western blot analysis, respectively, and the slides were processed for specific protein immunocytochemical detection Quantitative analysis using real-time RT-PCR of desmin mRNA expression in serum-starved hBC treated with Compound A (10 nM, grey columns) was examined at different time points (2-12 days). Results are derived from five different experiments from three distinct hBC preparations and are expressed as fold increase compared to time zero. *P≦0.01 or °P=0.04 vs. control, open columns and are shown in FIG. 8.
Western blot detection of desmin in hBC was conducted as follows: thirty μg of proteins were separated by 10% SDS-PAGE, transferred onto nitrocellulose membrane, and probed with anti-desmin antibody (1:1000). A band of about 58 kDa was detected in each sample of hBC. […]

[5] = maximum tolerated dose (MTD) in rats; assay type: in vivo; conditions: rat, in vivo, read-out: MTD
Source text: The maximum tolerated dose (MTD) in rats is also listed for each compound.

[6] = test system: bladder strips; assay: contractile properties of isolated bladder strips from BOO model rats; parameters: species or system Sprague-Dawley rats; conditions: in vitro test
Method: After completion of the cystometries, the rats were sacrified by carbon monoxide asphyxiation followed by exsanguination. The abdomen was accessed through a lower midline incision whereafter the symphysis was opened. The bladder was carefully dissected free, and immediately placed in chilled Krebs solution, and strip preparations were dissected.
The bladder and urethra were separated at the level of the bladder neck, and semicircular strips were prepared from the middle third of the detrusor (1×2×5 mm). All preparations were used immediately after removal.
The strips were transferred to 5 ml tissue baths containing Krebs solution. The Krebs solution was maintained at 37° C. and bubbled continuously with a mixture of 95% O2 and 5% CO2, resulting in a pH of 7.4. The strips were suspended between two L-shaped hooks by means of silk ligatures. One hook was connected to a movable unit allowing adjustment of passive tension, and the other to a Grass FT03C (Grass Instruments Co, MA, USA) force transducer. Isometric tension was recorded using a Grass polygraph (7D). After mounting, the strips were stretched to a passive tension of 4 mN (the same tension for all preparations) and allowed to equilibrate for 45-60 min before further experiments were performed.
Electrical field stimulation (EFS) was accomplished by means of two platinum electrodes placed on either side of the preparations, and was performed using a Grass S48 or S88 stimulator, delivering single square wave pulses at selected frequencies. The train duration was 5 s, the pulse duration 0.8 ms, and the stimulation interval 2 min. The polarity of the electrodes was shifted after each pulse by means of a polarity changing unit.
Each experiment was started by exposing the preparations to a high K^+ (124 mM) Krebs solution until two reproducible contractions are obtained. Then the following experiments were carried out:
a) Electrical stimulation of nerves was performed and frequency-response relations obtained, in the presence and absence of atropine.
b) Concentration-response curves were constructed for carbachol and ATP […]

[7] = test system: hBC; assay: androgen-stimulated hBC growth, 48 h incubation; assay type: cell-based, human; conditions: DHT 10 nM, Compound A 1 nM, finasteride 1 nM, FIG. 5
Source text: Results are expressed as percentage variation (mean±SEM) over their relative controls and derived from at least three different experiments obtained from three distinct hBC cell preparations. *P<0.05 (vs. control); °P<0.01 (vs. androgen-treated cells).

C=C1/C(=C\C=C2/CCC[C@]3(C)C([C@@H](C)C/C=C/C(O)(CC)CC)=CC[C@@H]23)C[C@@H](O)C[C@@H]1F [Compound A, 1-alpha-fluoro-25-hydroxy-16,23E-diene-26,27-bishomo-20-epi-cholecalciferol]
bladder capacity ([1]; FIG. 23): increase | non-voiding bladder contractions ([1]; FIG. 24): decrease | apoptotic index [2]: significantly increases | vimentin protein expression (Western blot) [3]: failed to affect | desmin protein expression (Western blot) ([4]; at any time point tested (2-12 days), FIG. 9): decreased | serum starvation-induced progressive increase in desmin expression ([4]; mRNA and protein, FIGS. 8-11): almost completely counteracted | MTD [5]: 0.1 mg/kg | response to carbachol of bladder strips [6]: beneficial effect | response to EFS of bladder strips ([6]; electrical field stimulation, FIG. 21): beneficial effect | K response of bladder strips ([6]; strips from treated rats, high K+ (124 mM)): beneficial effect | hBC proliferation stimulated by the androgen DHT [7]: inhibits
